Data on seven molecules can be found in ChEMBL document CHEMBL5108016, “Design, synthesis and neurite outgrowth activity of novel ganglioside GM1 derivatives by remodeling of the fatty acid moiety” (Eur J Med Chem, 2022).

Data set [1] can be described thus: Cytotoxicity against mouse Neuro2a cells assessed as inhibition of cell growth incubated for 24 hrs by MTT assay. The class given is toxicity, cell-based, N2a.
For data set [2], the system named is N2a. Nature of the data set: Induction of neurite outgrowth in mouse Neuro2a cells assessed as increase in GAP43 protein expression at 25 uM incubated for 24 hrs by immunoblotting analysis. The class given is functional, cell-based.
Data set [3] relates to N2a. Nature of the data set: Induction of neurite outgrowth in mouse Neuro2a cells assessed as increase in percentage of neurite-bearing cells at 25 uM incubated for 24 hrs. Type of data set: functional, cell-based.
The test system of data set [4] is N2a. As to the kind of experiment: Induction of neurite outgrowth in mouse Neuro2a cells assessed as increase in neurite-number per cells at 25 uM incubated for 24 hrs. The class given is functional, cell-based.
Data set [5] deals with N2a. Nature of the data set: Induction of neurite outgrowth in mouse Neuro2a cells assessed as increase in neurite-length per cells at 25 uM incubated for 24 hrs. The class given is functional, cell-based.

Molecules are shown by their SMILES. Activity calls are given as the source filed them. The calls are words filed in the database; no cut-off is given here. Bounds are passed on as bounds.

What is called IC50 is the concentration at which inhibition is half-maximal. For `CCCCCC/C=C\CCCC(=O)N[C@@H](CO[C@@H]1O[C@H](CO)[C@@H](O[C@@H]2O[C@H](CO)[C@H](O[C@@H]3O[C@H](CO)[C@H](O)[C@H](O[C@@H]4O[C@H](CO)[C@H](O)[C@H](O)[C@H]4O)[C@H]3NC(C)=O)[C@H](O[C@]3(C(=O)O)C[C@H](O)[C@@H](NC(C)=O)[C@@H]([C@@H](O)[C@H](O)CO)O3)[C@H]2O)[C@H](O)[C@H]1O)[C@H](O)/C=C/CCCCCCCCCCCCC`, the IC50 at 24 h in data set [1] was less than 25 µM.

Turning to `CCCC/C=C\CCCCCCCC(=O)N[C@@H](CO[C@@H]1O[C@H](CO)[C@@H](O[C@@H]2O[C@H](CO)[C@H](O[C@@H]3O[C@H](CO)[C@H](O)[C@H](O[C@@H]4O[C@H](CO)[C@H](O)[C@H](O)[C@H]4O)[C@H]3NC(C)=O)[C@H](O[C@]3(C(=O)O)C[C@H](O)[C@@H](NC(C)=O)[C@@H]([C@@H](O)[C@H](O)CO)O3)[C@H]2O)[C@H](O)[C@H]1O)[C@H](O)/C=C/CCCCCCCCCCCCC`, the IC50 at 24 h in data set [1] was less than 25 µM.

On to `CCCCCCCC/C=C/CCCCCCCC(=O)N[C@@H](CO[C@@H]1O[C@H](CO)[C@@H](O[C@@H]2O[C@H](CO)[C@H](O[C@@H]3O[C@H](CO)[C@H](O)[C@H](O[C@@H]4O[C@H](CO)[C@H](O)[C@H](O)[C@H]4O)[C@H]3NC(C)=O)[C@H](O[C@]3(C(=O)O)C[C@H](O)[C@@H](NC(C)=O)[C@@H]([C@@H](O)[C@H](O)CO)O3)[C@H]2O)[C@H](O)[C@H]1O)[C@H](O)/C=C/CCCCCCCCCCCCCCC`, for which the 50% inhibitory concentration (IC50) at 24 h in data set [1] is more than 200 µM. In addition, in the data set with N2a [2], the outcome was Active.

In the case of `CCCCCC/C=C\CCCCCCCC(=O)N[C@@H](CO[C@@H]1O[C@H](CO)[C@@H](O[C@@H]2O[C@H](CO)[C@H](O[C@@H]3O[C@H](CO)[C@H](O)[C@H](O[C@@H]4O[C@H](CO)[C@H](O)[C@H](O)[C@H]4O)[C@H]3NC(C)=O)[C@H](O[C@]3(C(=O)O)C[C@H](O)[C@@H](NC(C)=O)[C@@H]([C@@H](O)[C@H](O)CO)O3)[C@H]2O)[C@H](O)[C@H]1O)[C@H](O)/C=C/CCCCCCCCCCCCC`, the result in the data set on N2a [3], in the data set with N2a [4] and with N2a [5] was Active.

On to `CCCCCCCCCCCCCCC/C=C/[C@@H](O)[C@H](CO[C@@H]1O[C@H](CO)[C@@H](O[C@@H]2O[C@H](CO)[C@H](O[C@@H]3O[C@H](CO)[C@H](O)[C@H](O[C@@H]4O[C@H](CO)[C@H](O)[C@H](O)[C@H]4O)[C@H]3NC(C)=O)[C@H](O[C@]3(C(=O)O)C[C@H](O)[C@@H](NC(C)=O)[C@@H]([C@@H](O)[C@H](O)CO)O3)[C@H]2O)[C@H](O)[C@H]1O)NC(=O)CCCCCCCCCCCCCCCCC`, for which the IC50 at 24 h in data set [1] was more than 200 µM.

Regarding `CCCCCCCC/C=C\CCCCCCCC(=O)N[C@@H](CO[C@@H]1O[C@H](CO)[C@@H](O[C@@H]2O[C@H](CO)[C@H](O[C@@H]3O[C@H](CO)[C@H](O)[C@H](O[C@@H]4O[C@H](CO)[C@H](O)[C@H](O)[C@H]4O)[C@H]3NC(C)=O)[C@H](O[C@]3(C(=O)O)C[C@H](O)[C@@H](NC(C)=O)[C@@H]([C@@H](O)[C@H](O)CO)O3)[C@H]2O)[C@H](O)[C@H]1O)[C@H](O)/C=C/CCCCCCCCCCCCC`, the 50% inhibitory concentration (IC50) at 24 h in data set [1] was more than 200 µM. In addition, the outcome in the data set on N2a [3], in the data set on N2a [4], in the data set with N2a [5] and with N2a [2] was Active.

Consider `CCCCCC/C=C\CCCCCCCC(=O)N[C@@H](CO[C@@H]1O[C@H](CO)[C@@H](O[C@@H]2O[C@H](CO)[C@H](O[C@@H]3O[C@H](CO)[C@H](O)[C@H](O[C@@H]4O[C@H](CO)[C@H](O)[C@H](O)[C@H]4O)[C@H]3NC(C)=O)[C@H](O[C@]3(C(=O)O)C[C@H](O)[C@@H](NC(C)=O)[C@@H]([C@@H](O)[C@H](O)CO)O3)[C@H]2O)[C@H](O)[C@H]1O)[C@H](O)/C=C/CCCCCCCCCCCCCCC`, for which, in data set [1], the IC50 at 24 h is more than 200 µM. Moreover, the result in the data set with N2a [3], in the data set with N2a [4] and in the data set with N2a [5] was Active.
